PMC5068747, “Using C. elegans Forward and Reverse Genetics to Identify New Compounds with Anthelmintic Activity” (PLoS Neglected Tropical Diseases, 2016)
Where two headings read alike, the source gives them in different places.

Legend:
[1] = test system: C. elegans VC2010 (wild type); assay: WormScan screen of C. elegans growth, fecundity, motility and mortality; type: in vivo, Caenorhabditis elegans; parameters: normalized WormScan score: dose or concentration left out as unconfirmed
Protocol: (§1) All compound libraries were stored in 96-well plates, with 80 drugs per plate (columns 1 and 12 left empty). A BioGrid BG600 pinning robot (Digilab / BioRobotics) was used for compound transfer. The robot uses a 96-pin tool (0.7 mm dia.) to transfer a nominal volume of 340 nL of compound. For retesting, compounds were hand pinned from the original library plates to assay plates using a single 0.7 mm dia. pin. The assay plates were 96-well clear flat-bottom microplates containing 2% χ1666 E.coli bacteria in 0.5X Liquid Nematode Growth Media (LNGM) plus cholesterol (Bacteria were mass-grown in rich media, and harvested by centrifugation to produce a thick paste of bacterial cells that was kept frozen at -20°C. Cells were resuspended at 2% W/V in 0.5X LNGM to produce liquid worm food). Using a COPAS Biosort (Union Biometrica), two L4 to young adult stage VC2010 worms were added to each well of the plate in a final volume of 45 μL. After five days of exposure to the compounds, the plates were scanned and the data analyzed. A five day time period was chosen to be able to observe effects over all stages of the life cycle and through at least one round of replication. The initial proof-of-principle primary screen was performed manually using a dissecting microscope. Phenotypes scored included decreased motility, reduced brood size, and/or death as described previously. For high throughput screening of the Chembridge and Maybridge compound libraries we used the program WormScan, which was adapted for screening 96-well flat-bottom LNGM plates. Using WormScan it was possible to screen four 96-well plates at a time. Plates were scanned twice, at a resolution of 1200 dots per inch, 16-bit grayscale, producing a jpeg image. The light intensity produced by the scanner was sufficient to cause negative phototaxis equivalent to a physical stimulus for mortality determination. The time required to scan four 96-well plates using an Epson Perfection V700 Photo Scanner was less than ten minutes. The time to screen a single plate was less than 1.2 minutes, with less than ten seconds between scans.
(§2) WormScan was used to screen for the same phenotypes as in the manual screen (reduced brood size, reduced behavior/motility response and increased mortality). Two sequential scans for each 96-well plate were aligned to a reference region of interest (ROI). Image analysis was based on a difference image score calculated for each ROI. The difference image score (WormScan score) was normalized using a “percent of control” method to derive a normalized WormScan score. […] Wild-type growth in 1% DMSO (Fig 1A) results in a normalized WormScan score of 100. Exposure to 50 nM ivermectin gives a score of 0 (Fig 1C), and complete absence of worms gives a score of 0 (Fig 1D). For the primary screen the WormScan score was calculated using custom macro scripts written for Fiji. For secondary screening and any subsequent studies the WormScan score was calculated using a standalone Java program (See supplemental). Probit regression of mortality was calculated using Mathematica 8.0.

[2] = test system: Human embryonic kidney (HEK293) cells; assay: HEK293 viability, MTT colorimetric assay; type: cell-based; conditions: read-out: Mammalian IC50
Protocol: Potential anthelmintic compounds identified from primary screening were further tested against mammalian cells and yeast to determine whether they had deleterious effects in those organisms. Human embryonic kidney (HEK293) cells were grown in Dulbecco’s Modified Eagle’s Medium (DMEM; Sigma) containing 5% fetal bovine serum (FBS; Sigma) in 96-well plates tissue culture plates. Compounds were added 24h post-plating at 10, 30, 100, or 300 μM final concentrations. Dimethyl sulfoxide (DMSO) was used as a negative control at 0.1%. Cells were treated for 24 or 48 hours, after which time viability was assessed using a 3-(4,5-dimethylthiazol-2-yl)-2,5-diphenyltetrazolium bromide (MTT) colorimetric assay. Percent viability was determined by comparing treatment values to DMSO control values.

[3] = test system: S. cerevisiae yeast strain BY4743; assay: Yeast growth rate (OD600) dose titration; type: cell-based; conditions: BY4743, YPD, growth rate reduced by 50%
Protocol: The S. cerevisiae yeast strain BY4743 (MATa/α his3Δ1/his3Δ1 leu2Δ0/leu2Δ0 LYS2/lys2Δ0 met15Δ0/MET15 ura3Δ0/ura3Δ0) was used for all yeast experiments and was grown using yeast extract peptone dextrose (YPD) media at pH 7 [52]. BY4743 was grown overnight to initial log phase and was then grown with the compound identified in the C. elegans assay. The growth rate was quantified by continuously monitoring the optical density of the liquid yeast growth at OD600. The compound was screened in a dose-titration in YPD as described. The IC50 was the concentration required to reduce the growth rate or Average G value by 50% compared to a vehicle control (2% DMSO).

[4] = test system: C. elegans DA1316 (avr-14(ad1302); avr-15(vu227); glc-1(pk54), ivermectin resistant); assay: IC50 on ivermectin resistant C. elegans strain; type: in vivo, Caenorhabditis elegans; conditions: 5 days exposure, 2 L4 per well, three biological replicates
[5] = test system: C. elegans CB3474 (ben-1(e1880), benomyl resistant); assay: IC50 on benzimidazole resistant C. elegans strain; type: in vivo, Caenorhabditis elegans; conditions: 5 days exposure, 2 L4 per well, three biological replicates
[6] = test system: C. elegans CB193 (unc-29(e193), levamisole resistant); assay: IC50 on levamisole resistant C. elegans strain; type: in vivo, Caenorhabditis elegans; conditions: 5 days exposure, 2 L4 per well, three biological replicates
[7] = test system: C. elegans RB2119 (acr-23(ok2804), monepantel-resistant); assay: IC50 on amino-acetonitrile resistant C. elegans strain; type: in vivo, Caenorhabditis elegans; conditions: 5 days exposure, 2 L4 per well, three biological replicates, read-out: IC50, strain RB2119 (amino-acetonitriles)
[8] = test system: C. elegans VC3635 (pink-1 gk3615, D19 resistant); assay: IC50 on CID 2747322 resistant C. elegans strain VC3635; type: in vivo, Caenorhabditis elegans; conditions: 5 days exposure, 2 L4 per well, three biological replicates
Protocol: as §1, §2
(§3) A standard ethyl methanesulfonate (EMS) mutagenesis protocol was carried out using VC2010 in order to generate mutants resistant to CID 2747322 exposure. First larval stage (L1) F2 progeny of mutagenized P0s were exposed to CID 2747322 at 200 μM in liquid worm food in 24-well tissue culture plates for five days at room temperature, and two independently isolated resistant lines (VC3614 and VC3615) were identified. […]

[9] = test system: C. elegans VC3631 (mev-1 gk3613, D19 resistant); assay: IC50 on CID 2747322 resistant C. elegans strain VC3631; type: in vivo, Caenorhabditis elegans; conditions: 5 days exposure, 2 L4 per well, three biological replicates
Protocol: as §1, §2, §3

C. elegans VC2010 [10] = assay: Manual inspection of growth, brood size, developmental stage and recovery of C. elegans in drug; type: in vivo, Caenorhabditis elegans; conditions: L1s removed from the drug
Protocol: WormScan is a powerful tool to identify compounds with potential effects on the nematode, but it is still necessary to do manual inspection of wells with few animals to determine details of growth, behavior and fecundity. Wild-type worms grown in 90 μM CID 2747322 have brood sizes reduced by 97%. […] All current classes of anthelmintic have greater specificity towards certain life-stages. It is interesting that when removed from the drug L1s will recover and develop, and generally become fertile adults (See S3 Fig).
Supplementary file pntd.0005058.s002.tiff: S2 Fig Developmental stage of inhibition in C. elegans after CID 2747322 exposure. Ten VC2010 L1 stage C. elegans were sorted into a DMSO control well or 90 μM of CID 2747322. Nematodes were removed from the DMSO control or CID 2747322 after 24/48/72 hours and allowed to recover for 30 minutes on standard agar plates. (TIFF) Click here for additional data file.
Supplementary file pntd.0005058.s003.tiff: S3 Fig Development of C. elegans after removel from CID 2747322. Greater than 50 VC2010 L1 stage C. elegans were sorted into a DMSO control well or 90 μM of CID 2747322. Nematodes were removed from DMSO control or CID 2747322 after 2 days of exposure and left to recovery for 24/48/72 hours. (TIFF) Click here for additional data file.

nematodes = test system: nematodes; parameters: method as in PMID 10924467; conditions: cited from earlier work
A. suum complex II = test system: A. suum complex II; parameters: method as in PMID 26198225; conditions: cited from earlier work
porcine complex II = test system: porcine complex II; parameters: method as in PMID 26198225; conditions: cited from earlier work
C. elegans VC2010 [11] = assay: Manual phenotyping pilot screen of 3,584 known compounds (CCBN library); type: in vivo, Caenorhabditis elegans; conditions: dissecting microscope, positively confirmed drugs of CCBN library
[12] = Caenorhabditis elegans, 120 h, read-out: Nematode IC50
[13] = Caenorhabditis elegans, 120 h, 5 days exposure, 2 L4 per well, three biological replicates, read-out: IC50, strain VC2010 (wild type)
[14] = C. elegans, 5 days exposure, read-out: Nematode IC50
[15] = 5 days exposure, 2 L4 per well, three biological replicates, read-out: IC50, strain VC2010 (wild type)

Compound: CCCCNC(=O)n1c(NC(=O)OC)nc2ccccc21 [Benomyl, reference compound]
- IC50 [1, 12]: 60 µM
- IC50 ([2]; Homo sapiens): 8 µM
- IC50 ([3]; Saccharomyces cerevisiae): 750 µM

Compound: c1ccc2[nH]cnc2c1 [Benzimidazole]
- IC50 [1, 13]: 61 µM
- IC50 ([4]; Caenorhabditis elegans, 120 h): 59 µM
- IC50 ([5]; Caenorhabditis elegans, 120 h): > 1000 µM
- IC50 ([6]; Caenorhabditis elegans, 120 h): 113 µM
- IC50 ([7]; Caenorhabditis elegans, 120 h): 28 µM
- IC50 ([8]; Caenorhabditis elegans, 120 h): 118 µM
- IC50 ([9]; Caenorhabditis elegans, 120 h): 91 µM

Compound: NNC(=O)CCn1c2ccc(Cl)cc2c2cc(Cl)ccc21 [CID 766260]
- IC50 [1, 14]: 282 µM
- IC50 [2]: 44 µM
- IC50 [3]: 113 µM

Compound: FC(F)(F)c1cc(NCc2ccccc2)nc(-c2ccccc2)n1 [CID 796072]
- IC50 [1, 15]: 7 µM
- greater sensitivity in C. elegans than in other organisms (nematode index) ([1]; C. elegans versus mammalian cells, Table 1): four-fold
- IC50 [1, 14]: 7 µM
- IC50 [2]: 28 µM
- IC50 [3]: > 1000 µM
- IC50 [4]: 8 µM
- IC50 [5]: 2 µM
- IC50 [6]: 3 µM
- IC50 [7]: 2 µM
- IC50 [8]: 9 µM
- IC50 [9]: 11 µM

Compound: O=C1c2ccc(-c3nc4cc(Cl)ccc4c(=O)o3)cc2C(=O)N1c1ccccc1-c1ccccc1 [CID 2222671]
- IC50 [1, 14]: > 500 µM
- IC50 [2]: 234 µM
- IC50 [3]: > 1000 µM

Compound: N#CSCCCOc1ccccc1Br [CID 2238042]
- IC50 [1, 14]: 357 µM
- IC50 [2]: 67 µM
- IC50 [3]: 338 µM

Compound: Fc1ccc(COc2ccc(-c3nnco3)cc2)cc1 [CID 2740991]
- IC50 [1, 14]: 19 µM
- IC50 [2]: 83 µM
- IC50 [3]: > 1000 µM

Compound: Cc1csc2sc(C(=O)CC(=O)C(F)(F)F)c(C)c12 [CID 2743002]
- IC50 [1, 14]: > 500 µM
- IC50 [2]: 54 µM
- IC50 [3]: 20 µM

Compound: Cc1nn(S(=O)(=O)c2ccccc2)c(C)c1Oc1ccc(Cl)cc1 [CID 2745791]
- IC50 [1, 14]: 99 µM
- IC50 [2]: 54 µM
- IC50 [3]: > 1000 µM

Compound: COc1ccc(OCCNC(=O)c2c(F)cccc2Cl)cc1 [CID 2747279]
- anthelmintic activity on retest of the 50 compounds most similar to CID 2747322 ([1]; C. elegans, re-pinned, two additional biological replicates): strong anthelmintic activity
- IC50 ([1]; Caenorhabditis elegans, 120 h, C. elegans, 5 days exposure, read-out: Nematode IC50): 13 µM
- IC50 ([2]; Homo sapiens): 190 µM
- IC50 ([3]; Saccharomyces cerevisiae): > 1000 µM

Compound: O=C(Nc1ccc(Cl)cc1)Nc1ccc2ncccc2c1 [CID 2823320]
- IC50 [1, 14]: 40 µM
- IC50 [2]: 45 µM
- IC50 [3]: > 1000 µM

Compound: Cc1nc2c(c3c1[nH]c1ccccc13)C(=O)CC(C)(C)C2 [CID 3254982]
- IC50 [1, 14]: 17 µM
- IC50 [2]: 37 µM
- IC50 [3]: 140 µM

Compound: C=C(C)C1CC=C(CN(C)C2CCN(C)CC2)CC1 (stereo not shown) [CID 6456299]
- IC50 [1, 14]: > 500 µM
- IC50 [2]: 184 µM
- IC50 [3]: > 1000 µM

Compound: O=C(NCCc1ncc(C(F)(F)F)cc1Cl)c1ccccc1C(F)(F)F [Fluopyram, reference compound]
- IC50 [1, 12]: 0.05 µM
- IC50 ([2]; Homo sapiens): 300 µM
- IC50 ([3]; Saccharomyces cerevisiae): > 1000 µM
- outcome after exposure / removal from drug (C. elegans VC2010 [10]): animals are killed

Compound: c1ccc([C@H]2CN3CCSC3=N2)cc1 [Levamisole]
- IC50 [1, 13]: 4 µM
- IC50 ([4]; Caenorhabditis elegans, 120 h): 8 µM
- IC50 ([5]; Caenorhabditis elegans, 120 h): 2 µM
- IC50 ([6]; Caenorhabditis elegans, 120 h): > 250 µM
- IC50 ([7]; Caenorhabditis elegans, 120 h): 4 µM
- IC50 ([8]; Caenorhabditis elegans, 120 h): 6 µM
- IC50 ([9]; Caenorhabditis elegans, 120 h): 10 µM

Compound: CC1(C)SC2C(N)C(=O)N2C1C(=O)O (stereo not shown) [WACT162]
- effect on nematodes (nematodes): only reduces growth

Compound: CC(C)Oc1cccc(NC(=O)c2ccccc2C(F)(F)F)c1 [flutolanil]
- IC50 (A. suum complex II): 0.0245 µM
- IC50 (porcine complex II): 8.61 µM

Compound: Ivermectin
- WormScan Score ([1]; 50 μM, five days exposure, normalized, DMSO control = 100): 0
- IC50 [1, 15]: 0.03 µM
- IC50 [1, 14]: 0.03 µM
- normalized WormScan score ([1]; normalized, DMSO control = 100): 0
- IC50 [2]: 300 µM
- IC50 [3]: > 1000 µM
- IC50 [4]: 7 µM
- IC50 [5]: 0.01 µM
- IC50 [6]: 0.01 µM
- IC50 [7]: 0.01 µM
- IC50 [8]: 0.01 µM
- IC50 [9]: 0.01 µM
- Worm Reaction in Drug (C. elegans VC2010 [11]): appears dead/paralyzed no progeny
